# Several values for one entry are separate records, joined by “and”; a condition that tells them apart may be missing. Equal entries are not always repeated. Where two headings read alike, the source gives them in different places.
# Columns and labels:
# HEK-MOCK cells [1] = test: Concentration-dependent cellular uptake into HEK-MOCK cells; assay type: cell-based, human; conditions: for Vmax: 10 min
# Procedure: (§1) The concentrations for the compounds were in the range of 2–400 μM. Otherwise, the experiment was carried out as described above and analyzed by liquid chromatography coupled with an electrospray ionization (ESI) triple quadrupole mass spectrometer (LC–MS–MS). […]
# (§2) The concentration-dependent uptake studies were performed by adding 2–400 μM of the tested compound in 250 μL of prewarmed HBSS buffer on the cell layer. […] After incubation, the cells were washed and lysed as described above. The lysate was collected from wells into an Eppendorf tube and centrifuged at 4 °C, the supernatant was collected, and the intracellular concentrations of studied compounds were analyzed by liquid chromatography coupled with an ESI triple quadrupole mass spectrometer (LC–MS–MS). The results were calculated from the standard curve that was prepared by spiking known amounts of each compound to the cell lysate and normalized to protein concentration. The protein concentrations on each plate were determined as a mean of three samples by Bio-Rad Protein Assay, based on the Bradford dye-binding method, using BSA as a standard protein and measuring the absorbance (595 nm) by a multiplate reader (EnVision, PerkinElmer, Inc., Waltham, MA, USA). All statistical analyses (Michaelis–Menten kinetic parameters) were performed using GraphPad Prism v. 5.03 software (GraphPad Software, San Diego, CA., USA). […]
# (§3) After protein precipitation, the samples were centrifuged for 10 min with 10,000 g at 4 °C. The supernatant was then collected and transferred to vials for LC–MS/MS analysis. For BCH and gabapentin, cells were also lysed with 0.1 M NaOH, an aliquot was taken from the lysates, and perchloric acid (PCA) was added to precipitate the proteins. The samples were then centrifuged, and the supernatant was diluted 1:10 with H20 with 0.1% formic acid including the IS and transferred to vials for analysis.
# (§4) The samples were analyzed with LC–MS/MS coupled with an Agilent 1200 series Rapid Resolution LC System (Agilent Technologies, Waldbronn, Germany) and an Agilent 6410 Triple Quadrupole with electrospray ionization (ESI) (Agilent Technologies, Palo Alto, CA, USA). […] The aqueous mobile phase was 0.1% formic acid in water (A), while the organic mobile phase was 0.1% formic acid in acetonitrile (B). […] For compound 4: 0–4 min 10% → 90% B, 4–6 min 90% B, 6–6.1 min 90% → 10%, 6.1–9 min 10%. For compound 5: 0–1 min 20% → 95% B, 1–4 min 95%, 4–4.1 min 95% → 20%, 4.1–7 min 20%. For compounds 6 and 9: 0–2 min 10% → 95%, 2–6 min 95%, 6–6.1 min 95% → 10%, 6.1–9 min 10%. For compound 8: 0–1 min 20% → 80%, 1–5.2 min 80%, 5.2–5.3 min 80% → 20%, 5.3–9 min 20%.
# hLAT1/4F2hc [2] = target: T1, hLAT1/4F2hc (Homo sapiens, UniProt Q01650); test: cis-inhibition of [14C]-L-leucine uptake in HEK-hLAT1 cells; assay type: cell-based; conditions: HEK-hLAT1 cells; for inhibition at 50 µM: read-out: [14C]-L-Leucine uptake inhibition % (50μM); for IC50: read-out: IC50 of [14C]-L-leucine uptake
# T1 construct: Invitrogen (host cells)
# Procedure: (§5) In the following experiments, the MCF-7, HEK-hLAT1, and HEK-MOCK cells were cultured, seeded, and preincubated as described above. The HBSS was removed, and the ability of the compounds to inhibit the uptake of a known LAT1 substrate, [^14C]-L-leucine (PerkinElmer, Waltham, MA, USA), was studied by incubating the cells at RT for 10 min in uptake buffer pH 7.4 (250 μL) containing 0.76 μM (0.1 mCi/mL) of [^14C]-L-leucine and 0.025–1800 μM of the studied compound (or HBSS as blank). After incubation, the reaction was stopped with ice-cold HBSS, and the cells were washed two times with ice-cold HBSS. The cells were then lysed with 250 μL of 0.1 M sodium hydroxide, the lysate was mixed with 1.0 mL of Emulsifier safe cocktail (PerkinElmer, Waltham, MA, USA), and the radioactivity was measured with a liquid scintillation counter (MicroBeta^2 counter, PerkinElmer, Waltham, MA, USA). The inhibition of [^14C]-L-leucine in the presence of the studied compounds as compared to the control (HBSS) was calculated as percentages (%).
# Using the stably hLAT1/4F2hc expressing cell line, the compounds’ inhibitory efficiencies and uptake kinetics were determined via the cis-inhibition assay and uptake studies, respectively. (Table 1) Cis-inhibition is based on the competition between the ligand and LAT1 substrate [^14C]-L-leucine that results in inhibition of substrate uptake. The competitive uptake with L-leucine is reported as the IC50 value of L-leucine uptake and extent as inhibition percentage (%) at a given concentration.
# HEK-MOCK cells [3] = test: cis-inhibition of [14C]-L-leucine uptake in HEK-MOCK cells; assay type: cell-based, human; conditions: Homo sapiens, HEK-MOCK cells, known substrates
# Procedure: as §5
# Using the stably hLAT1/4F2hc expressing cell line, the compounds’ inhibitory efficiencies and uptake kinetics were determined via the cis-inhibition assay and uptake studies, respectively. (Table 1) Cis-inhibition is based on the competition between the ligand and LAT1 substrate [^14C]-L-leucine that results in inhibition of substrate uptake. The competitive uptake with L-leucine is reported as the IC50 value of L-leucine uptake and extent as inhibition percentage (%) at a given concentration. Overall, the inhibition trends of the tested compounds were similar between HEK-hLAT1 and MCF-7 cells. In the next step, more straightforward results were obtained by undertaking direct cellular uptake studies with both HEK-hLAT1 and HEK-MOCK cells. This experiment enabled us to determine not only the uptake kinetics (Vmax and Km) of the ligands but also their preference for LAT1-expressing cells over the comparator HEK-MOCK cells.
# hLAT1/4F2hc [4] = target: T1, hLAT1/4F2hc; test: Concentration-dependent cellular uptake into HEK-hLAT1 cells (LC-MS/MS, Michaelis-Menten); assay type: cell-based; conditions: for Vmax / Km: HEK-hLAT1 cells, compounds 1-12; for Vmax: 2-400 μM, 10 min; for Km: read-out: Km
# Procedure: as §1, §2, §3, §4
# [5] = target: T2, LAT1 in MCF-7 human breast cancer cells (Homo sapiens, UniProt Q01650); test: cis-inhibition of [14C]-L-leucine uptake in MCF-7 cells; assay type: cell-based; conditions: for inhibition at 50 µM: MCF7, MCF-7 cells, 50 μM compound; for IC50: MCF-7 cells
# T2 construct: wild-type MCF-7 human breast cancer cell line; endogenous in cells; host or cells: MCF-7 human breast cancer cells (wild type)
# Procedure: Cells were cultured in DMEM (Gibco, ThermoFisher Scientific, Waltham, MA, USA) supplemented with L-glutamine (2 mM; ThermoFisher Scientific, Waltham, MA, USA), heat-inactivated fetal bovine serum (10%; Gibco, ThermoFisher Scientific, Waltham, MA, USA), penicillin (50 U/mL)-streptomycin (50 μg/mL) solution (ThermoFisher Scientific, Waltham, MA, USA), and hygromycin B solution (100 μg/mL) for transfected cells. HEK-hLAT1 and HEK-MOCK cells (passages 7–20) were seeded at a density of 5 × 10^5 cells/wells onto 24-well plates. The cells were used in the characterization, competition, and uptake studies 2 days after seeding. MCF-7 cells were seeded at a density of 1 × 10^5 and were used in the competition studies 1 day after seeding. The culture medium was removed, and the cells were washed with prewarmed Hanks’ balanced salt solution (HBSS; 125 mM NaCl, 4.8 mM KCl, 1.2 mM MgSO4, 1.2 mM KH2PO4, 1.3 mM CaCl2, 5.6 mM D-glucose, and 25 mM HEPES, pH 7.4). The cells were then incubated with HBSS at 37 °C for 10 min before the experiments.
# as §5
# hLAT1/4F2hc [6] = target: T1, hLAT1/4F2hc; test: Concentration-dependent cellular uptake into HEK-hLAT1 cells (LC-MS/MS, Michaelis-Menten); assay type: cell-based; conditions: difference in uptake HEK-hLAT1 vs HEK-MOCK, with docking poses; 2-100 μM curves
# MCF-7 cells = conditions: MCF-7 cells, previous studies; cited from earlier work
# T1 sequence (Q01650 whole entry): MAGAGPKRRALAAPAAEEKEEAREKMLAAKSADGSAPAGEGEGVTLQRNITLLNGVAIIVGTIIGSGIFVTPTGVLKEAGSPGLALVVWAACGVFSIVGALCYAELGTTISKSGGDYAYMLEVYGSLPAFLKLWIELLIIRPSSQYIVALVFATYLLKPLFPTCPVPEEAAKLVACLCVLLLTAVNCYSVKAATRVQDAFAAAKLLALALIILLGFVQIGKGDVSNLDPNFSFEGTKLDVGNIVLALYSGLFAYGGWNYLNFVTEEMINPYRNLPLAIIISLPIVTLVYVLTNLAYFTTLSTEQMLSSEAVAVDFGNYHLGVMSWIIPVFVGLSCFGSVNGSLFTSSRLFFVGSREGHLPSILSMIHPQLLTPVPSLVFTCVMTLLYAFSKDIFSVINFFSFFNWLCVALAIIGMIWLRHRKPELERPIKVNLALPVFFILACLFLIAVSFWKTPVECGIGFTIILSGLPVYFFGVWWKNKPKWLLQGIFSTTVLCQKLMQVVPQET
# T1 sequence (P08195 102-630 partner): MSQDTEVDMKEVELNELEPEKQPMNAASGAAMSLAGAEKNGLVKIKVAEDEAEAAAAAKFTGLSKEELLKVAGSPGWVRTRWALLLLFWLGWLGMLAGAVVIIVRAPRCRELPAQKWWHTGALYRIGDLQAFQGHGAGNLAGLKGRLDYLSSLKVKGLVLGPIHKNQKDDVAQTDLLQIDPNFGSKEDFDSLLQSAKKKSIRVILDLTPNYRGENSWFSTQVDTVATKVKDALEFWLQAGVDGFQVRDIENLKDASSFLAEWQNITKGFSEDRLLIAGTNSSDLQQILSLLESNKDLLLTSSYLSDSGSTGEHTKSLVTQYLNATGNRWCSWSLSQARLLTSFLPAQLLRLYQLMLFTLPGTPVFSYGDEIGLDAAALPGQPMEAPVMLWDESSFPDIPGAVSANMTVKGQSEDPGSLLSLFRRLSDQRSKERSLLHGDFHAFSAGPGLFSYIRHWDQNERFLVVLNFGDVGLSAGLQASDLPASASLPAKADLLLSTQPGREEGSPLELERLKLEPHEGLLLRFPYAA
# T2 sequence (Q01650 whole entry): as the sequence (Q01650 whole entry) above
# T2 sequence (P08195 102-630 partner): as the sequence (P08195 102-630 partner) above
Compound,"Vmax (HEK-MOCK cells [1]; known LAT1 substrates, 2-400 μM, n = 3)","Km (HEK-MOCK cells [1]; known LAT1 substrates, n = 3) [µM]","inhibition at 50 µM (hLAT1/4F2hc [2]; 50 μM compound, 0.76 μM [14C]-L-leucine, 10 min, known substrates) [%]",IC50 (hLAT1/4F2hc [2]; known substrates) [µM],"inhibition at 50 µM (HEK-MOCK cells [3]; 10 min, 50 μM compound, 0.76 μM [14C]-L-leucine, 10 min, read-out: [14C]-L-Leucine uptake inhibition % (50μM)) [%]",IC50 (HEK-MOCK cells [3]; read-out: IC50 of [14C]-L-leucine uptake) [µM],Vmax (hLAT1/4F2hc [4]),Km (hLAT1/4F2hc [4]) [µM],Km (HEK-MOCK cells [1]; compounds 1-12) [µM],"Vmax (HEK-MOCK cells [1]; compounds 1-12, 2-400 μM)","inhibition at 50 µM (hLAT1/4F2hc [2]; 50 μM compound, compounds 1-12) [%]",IC50 (hLAT1/4F2hc [2]; compounds 1-12) [µM],inhibition at 50 µM [5] [%],IC50 [5] [µM],interaction class with LAT1 (interaction and transportability) (hLAT1/4F2hc [6]),Vmax (MCF-7 cells) [pmol/min/mg],potency for hLAT1 relative to HEK-MOCK (Km ratio) (hLAT1/4F2hc [4]; Km 111 μM HEK-hLAT1 vs 277 μM HEK-MOCK),Vmax (uptake rate) in HEK-hLAT1 cells relative to HEK-MOCK cells (hLAT1/4F2hc [4]; ratio of Vmax values),"[14C]-L-Leucine uptake inhibition % (50μM) (hLAT1/4F2hc [2]; 50 μM compound, compounds 1-12)"
"NC1(C(=O)O)CC2CCC1C2 (centres unmarked) [BCH, reference compound]",2.6±0.6 nmol/min/mg of protein,155 ± 50,51.8 ± 2.1,28,5.8 ± 1,203,–,–,–,–,–,–,–,–,–,–,–,–,–
N[C@@H](Cc1cccc(NC(=O)c2ccccc2O)c1)C(=O)O [Compound 1],–,–,–,–,–,–,3714±371 pmol/min/mg of protein,105 ± 17,10 ± 2.7,94±5.4 pmol/min/mg of protein,8.1 ± 6.9,> 100,66 ± 3.9,3.3 ± 1.3,highest interactions,–,–,–,–
N[C@@H](Cc1cccc(C(=O)NCCc2ccc(O)c(O)c2)c1)C(=O)O [Compound 3],–,–,–,–,–,–,–,–,–,–,4.27 ± 3.94,> 100,–,3.3 ± 1.3,highest interactions,< 3,–,–,–
CCCC(CCC)C(=O)Nc1cccc(C[C@H](N)C(=O)O)c1 [Compound 4],–,–,–,–,–,–,1027 pmol/min/mg of protein and 1027±170 pmol/min/mg of protein,111 ± 30,277,292 pmol/min/mg of protein and 292±710 pmol/min/mg of protein,–,> 100,–,81 ± 1.4,highest interactions,–,more than two-fold,around three,no inhibition
CNC(=O)COc1ccc(-c2c(C#N)c(NC(=O)c3cccc(C[C@H](N)C(=O)O)c3)n3c(nc4ccccc43)c2C#N)cc1 [Compound 6],–,–,–,–,–,–,–,–,201 ± 344,74±92 pmol/min/mg of protein,29 ± 2.8,> 100,48 ± 12,–,medium interactions,–,–,–,–
CC(C)Cc1ccc(C(C)C(=O)Nc2cccc(C[C@H](N)C(=O)O)c2)cc1 (some centres unmarked) [Compound 7],–,–,–,–,–,–,–,–,–,–,20 ± 2.5,57,69 ± 4.3,20 ± 1.3,medium interactions,–,–,–,–

# From PMC9811466, “Structural Features Affecting the Interactions and Transportability of LAT1-Targeted Phenylalanine Drug Conjugates” (Molecular Pharmaceutics, 2022)
